Measurements taken from patent US20250313635A1, “ANTI-INTEGRIN ANTIBODIES AND USES THEREOF” (Merck Sharp & Dohme LLC, priority 2022, published 2025).

Columns and labels:
[1] = test system: bleomycin-induced lung fibrosis mouse model; assay: Mouse bleomycin lung fibrosis model; assay type: in vivo; conditions: MK-0429 200 mpk osmotic minipump, Nintedanib 60 mpk po qd
Method: Mouse bleomycin lungfibrosis models. Adult male C57BL/6 mice (Taconic, Rensselaer, NY) were housed in a temperature and humidity-controlled facility with a 12-hour light: 12-hour dark cycle. Animals had ad libitum access to food (Purina Rodent Chow 5053, LabDiet, St. Louis, MO) and water. All procedures utilizing experimental animals were conducted in accordance with the Guide for the Care and Use of Laboratory Animals, and experimental procedures were reviewed and approved by the Institutional Animal Care and Use Committee at MRL, Kenilworth, NJ.
For osmotic minipump implantation, trifluoroacetate (TFA) salt of MK-0429 was formulated in 50% dimethylsulfoxide (DMSO)/50% H2O at a concentration of 416 mg/mL. MK-0429 or vehicle solution were filled in minipumps (Alzet, #1007D, flow rate 0.5 μL/hour). Minipumps were placed in mice subcutaneously in a pocket on the back between the shoulder blades. A small incision was made and a subcutaneous pocket formed by blunt dissection. A sterile minipump was inserted into the subcutaneous pocket. The incision was closed with staples or non-absorbable suture or absorbable (subcuticular) suture. The minipumps were used for continuous drug delivery for two weeks.
(§1) Mice at 12˜13 weeks of age were randomized to five groups: saline, bleomycin instillation with vehicle (osmotic minipump), bleomycin instillation with MK-0429 treatment, bleomycin instillation with vehicle oral treatment, and bleomycin instillation with Nintedanib treatment. All mice were anaesthetized with isoflurane. Bleomycin was dosed by intratracheal (i.t) instillation in a volume of 50 μL, at a dose of 1 unit/kg body weight. After instillation, mice were kept in a heads-up position for 2-5 minutes before putting into cages. MK-0429 (200 mg/kg) was administered by Osmotic pump from day 5 to day 14 and Nintedanib (60 mg/kg) was administered, p.o., q.d., for 14 days. Vehicle was dosed orally at 10 am daily from the day 5 to the end of the studies and dosing volume was 10 mL/kg. For plasma PK analysis, an aliquot of 50 μL plasma was spiked into a 96-well plate, and 200 μL of acetonitrile containing internal standard were added for protein precipitation. The mixture was vortexed, centrifuged at 4000 rpm for 20 minutes. Then 50 μL of supernatant fraction was mixed with 200 μL H2O and the final solution were injected for LC-MS/MS analysis. The methods for quantitative analysis were developed on UPLC (Waters) chromatographic system equipped with an API4000 QTrap™ mass spectrometer (Applied Biosystems, Concord, Ontario, Canada). Analyst 1.5 software packages (Applied Biosystems) were used to control the LC-MS/MS system and data acquisition and processing.
Histopathology analysis. Upon completion of the study, animals were euthanized and tissues were collected for histological assessment. Lung tissues were perfused with 10% formalin, fixed for 24 hours, and then paraffin embedded. Tissue sections were stained with hematoxylin & eosin (H&E) and Masson's trichrome, subsequently evaluated under light microscope. The severity of histopathologic changes and fibrosis in the lung were graded as described previously by pathologists (Ashcroft et al., J. Clin. Pathol. 41, 467-470 (1988); Hubner et al., Biotechniques 44(507-511), 514-607 (2008)). Following deparaffinization and rehydration, each lung tissue section was processed to identify αSMA deposition by immunohistochemistry. The primary antibodies used were αSMA antibody from Sigma. The Aperio ScanScope™ XT Slide Scanner (Aperio Technologies) system was used to capture whole slide digital images with a 20×objective. Digital images were managed using Aperio Spectrum™. The positive stains were identified and quantified using a macro created from a color deconvolution algorithm (Aperio Technologies). Statistical analysis was performed by using One-way ANOVA followed by Tukey's test.

[2] = Plasma PK analysis in bleomycin model (LC-MS/MS); assay type: in vivo; conditions: mouse, two hours after the last dose at end of study; MK-0429 200 mpk osmotic minipump, Nintedanib 60 mpk po qd
Method: as §1, with “Analyst 1.5 software packages (Applied Biosystems) were used to control the LC-MS/MS system and data acquisition and processing.” left out

[3] = test system: Normal human lung fibroblasts; assay: αSMA imaging, TGFβ-induced αSMA expression; assay type: cell-based; conditions: TGFβ 5 ng/mL, pre-treated 30 minutes, MK-0429 (10 µM) or SB-525334 (10 μM), 48 hours
Method: αSMA imaging. Primary cells (passage 3-5) were grown on Cell carrier Ultra, collagen Type 1 coated 96-well plates (Perkin Elmer, #6055700) at a density of 25,000 cells/well. Once the cells adhere, they were starved in serum free media for 24 hours followed by addition of treatments, i.e., 5 ng/mL TGFβ (Biolegend #580702)±inhibitors. Cells were pre-treated with inhibitors for 30 minutes prior to the addition of TGFβ stimulation. 48 hours post treatment, the cells were fixed in 4% methanol free paraformaldehyde (ThermoFisher Scientific #28908) for 20 minutes at room temperature and incubated with anti-alpha smooth muscle Actin antibody (Abcam #ab7817) at 1:4000 overnight at 4° C. Following primary antibody incubation, cells were incubated with Goat anti-mouse secondary antibody (ThermoFisher Scientific #A32723) at 1:500 and Hoechst (ThermoFisher Scientific #62249) at 1:1000 for one hour at RT. The fixed and stained cells were images for immunofluorescence on Perkin Elmer's Opera Phenix high content Imager.

[4] = 14 days treatment, vs BLM-vehicle

Row | SMILES | body weight difference vs bleomycin group [1] | BALF TIMP-1 content [1, 4] | bleomycin-induced αSMA expression (IHC) [1, 4] | inflammation in the lung [1, 4] | modified Ashcroft score [1, 4] | mean plasma concentration [2] | αSMA intensity and the percentage of stimulated cells following TGFβ treatment [3]
1 | COC(=O)c1ccc2c(c1)NC(=O)/C2=C(\Nc1ccc(N(C)C(=O)CN2CCN(C)CC2)cc1)c1ccccc1 [Nintedanib, reference compound] | no significant body weight difference | significantly decreased | significantly decreased | decreased inflammation | significantly improved | 656+229 ng/mL | –
2 | Cc1cccc(-c2[nH]c(C(C)(C)C)nc2-c2ccc3nccnc3c2)n1 [SB-525334, reference compound] | – | – | – | – | – | – | significantly reduced
